From US7541173B2, “Solvent tolerant microorganisms and methods of isolation” (E.I. du Pont de Nemours and Company, priority 2006, dated 2009)

Key:
[1] = system: microbial consortium from wastewater sludge samples; conditions: 1-butanol 1.6%, chemostat, 37° C.
[2] = system: most microorganisms described in the art; conditions: liquid medium at 37° C.; cited from earlier work
[3] = system: butanol tolerant Lactobacillus strains; assay type: cell-based; conditions: S20 agar or TSA agar, 37° C., 24 to 72 h
Protocol: The square-well microtiter plate was sealed with an adhesive cover (Beckman Coulter Inc.; Catalog No. 538619) and incubated at 37° C. with shaking for up to 72 h. The square-well microtiter plate was used to make a master plate by dispensing 200 μL of culture from each square well into a corresponding well in a “U-bottom” microtiter plate (VWR Scientific Products, West Chester, Pa.; Catalog No. 62409-052).

1-butanol
cell density after continued incubation ([1]; after adaptation): 2.3 OD600
cell density after increasing 1-butanol in feed ([1]; initial decrease): less than 1.5 OD600
concentration at which growth is totally inhibited [2]: less than 2.0 % w/v
1-butanol concentration in agar medium on which isolates grew [3]: 3%
